Patent US9925274B2, “Delphinidin complex as an antiphlogistic or immunosuppressive active ingredient” (priority 2012, dated 2018)
Entries after “also recorded” stand apart in the source; their conditions may differ. Where two headings read alike, the source gives them in different places.

Legend:
NFKB = assay: Concentration of NFKB in the nucleus of monocytes after stimulation with LPS and/or delphinidin (immunofluorescence nuclear staining; Examples 6-8); format: cell-based; design: Inhibitory effect on the cell immune response compared to hydrocortisone: dose or concentration left out as unconfirmed
Description: For healthy test subjects, the concentration of NFKB in the nucleus of monocytes after stimulation with LPS and/or delphinidin was assayed by means of immunofluorescence nuclear staining for NFKB and expressed in relation to nonstimulated cells. NFKB is activated by various stimuli, especially inflammatory and stress-associated stimuli.
The following procedure was carried out and shown in FIG. 1 from left to right, with the stimulation/incubation of the cells (1 ml in each case of RPMI-1640 comprising 1 million cells in the exponential growth phase) taking place at 37° C. in a well of a 24-well polystyrene cell culture dish and the specified concentrations being final concentrations: • “1.5 h 10 μg LPS”—Stimulation of the cells for 1.5 h with 10 μg/ml LPS (control) • “24 h prestim. 5 μM Del-Cl; 1.5 h 10 μg LPS”—24 h prestimulation of the cells with 5 μM delphinidin chloride (dissolved in RPMI-1640 cell medium) and then 1.5 h stimulation with 10 μg/ml LPS • “1.5 h 5 μM Del-Cl+10 μg LPS”—1.5 h simulation of the cells with 10 μg/ml LPS and 5 μM delphinidin chloride (dissolved in RPMI-1640 cell medium) • “24 h prestim. 5 μM Del-Cl; 1.5 h 5 μM Del-Cl”—24 h prestimulation of the cells with 5 μM delphinidin chloride (dissolved in RPMI-1640 cell medium) and then renewed stimulation with 5 μM delphinidin chloride (dissolved in RPMI-1640 cell medium) for 1.5 h • “24 h prestim. 5 μM Del-Cl; 1.5 h 5 μM Del-Cl+10 μg LPS”—24 h prestimulation of the cells with 5 μM delphinidin chloride (dissolved in RPMI-1640 cell medium) and then renewed stimulation with 5 μM delphinidin chloride (dissolved in RPMI-1640 cell medium) and 10 μg/ml LPS for 1.5 h
A procedure analogous to the methodology in example 5 was carried out and shown in FIGS. 2a and 2b from left to right, with the stimulation/incubation of the cells (1 ml in each case of RPMI-1640 comprising 1 million cells in the exponential growth phase) taking place at 37° C. in a well of a 24-well polystyrene cell culture dish and the specified concentrations being final concentrations:
FIG. 2a: • “1.5 h 10 μg LPS”—Stimulation of the cells for 1.5 h with 10 μg/ml LPS (control) • “1.5 h 5 μM Del-Cl+10 μg LPS”—1.5 h simulation of the cells with 10 μg/ml LPS and 5 μM delphinidin chloride (dissolved in RPMI-1640 cell medium) • “1.5 h hydrocortisone+10 μg LPS”—Stimulation of the cells for 10^−5 M hydrocortisone and 10 μg/ml LPS for 1.5 h
FIG. 2b: • “1.5 h 10 μg LPS”—Stimulation of the cells for 1.5 h with 10 μg/ml LPS (control) • “1.5 h 10 μM Del-Cl+10 μg LPS”—1.5 h simulation of the cells with 10 μg/ml LPS and 10 μM delphinidin chloride (dissolved in RPMI-1640 cell medium)
A procedure analogous to the methodology in examples 5 and 6 was carried out and shown in FIG. 3 from left to right, with the stimulation/incubation of the cells (1 ml in each case of RPMI-1640 comprising 1 million cells in the exponential growth phase) taking place at 37° C. in a well of a 24-well polystyrene cell culture dish and the specified concentrations being final concentrations: • “1.5 h 2.5 μM Del-Cl”—1.5 h stimulation of the cells with 2.5 μM delphinidin chloride (dissolved in RPMI-1640 cell medium) • “1.5 h 5 μM Del-Cl”—1.5 h simulation of the cells with 5 μM delphinidin chloride (dissolved in RPMI-1640 cell medium) • “1.5 h 10 μM Del-Cl”—1.5 h stimulation of the cells with 10 μM delphinidin chloride (dissolved in RPMI-1640 cell medium) • “1.5 h hydrocortisone”—1.5 h stimulation of the cells with […] hydrocortisone

[1] = Stability experiments in aqueous solution: 0.9% NaCl, 37° C., delphinidin content by HPLC (Example 5); format: physicochemical; conditions: dark, start 1.584 mg/ml (complex) or 0.0216 mg/ml (uncomplexed)
Description: The content of delphinidin chloride in the delphinidin-containing solutions was determined by using a reverse-phase HPLC method similar to the one already described above. This used the following reagents: • Purified water • Methanol for chromatography • Formic acid, p. a. • 1 M Hydrochloric acid as volumetric solution.
The solutions were produced at room temperature and then stored in closed vials in the dark at 37° C.
After 1, 2, 3 and 4 h, the delphinidin content was determined. The table below specifies the ascertained content as a percentage of the above-stated starting concentration.

[2] = test system: tight junction protein claudin-5 mRNA expression in cEND cells; assay: claudin-5 mRNA expression in cEND cells with or without TNFα (Example 10); format: cell-based, murine
Excerpt: The surrogate marker used for the tightness of the barrier was the expression of the tight junction protein claudin-5 (Forster C. Tight junctions and the modulation of barrier function in disease. Histochem Cell Biol. 2008; 130: 55-70) and the procedure carried out was analogous to example 8.

[3] = Solubility of delphinidin chloride in aqueous cyclodextrin solutions (Example 1); conditions: neutral aqueous solution with 10% by weight cyclodextrin (β-CD 2%) or pure water; excess delphinidin chloride; stirred in the dark at 30° C. for 20 h; 0.22 μm filtration
[4] = test system: Cc17 [chemokine (C—C motif) ligand 7] mRNA expression in cEND cells; conditions: for Effect on the TNFα-induced rise in Cc17 mRNA expression: TNFα 24 h
[5] = conclusion from the measured results

C[C@]12CCC(=O)C=C1CC[C@@H]1[C@@H]2[C@@H](O)C[C@@]2(C)[C@H]1CC[C@]2(O)C(=O)CO [hydrocortisone, reference compound]
Inhibition of the LPS-mediated immune response (NFKB in the nucleus) (NFKB; 1.5 h 10^−5 M hydrocortisone + 10 μg/ml LPS, FIG. 2a): inhibited

Oc1cc(O)c2cc(O)c(-c3cc(O)c(O)c(O)c3)[o+]c2c1.[Cl-] [delphinidin, Delphinidin chloride]
Delphinidin content as a percentage of the starting concentration ([1]; 0 h): 100% | Delphinidin content as a percentage of the starting concentration ([1]; 1 h): 8.3% | Delphinidin content as a percentage of the starting concentration ([1]; 2 h): 6.5% | Delphinidin content as a percentage of the starting concentration ([1]; 3 h): 5.6% | Delphinidin content as a percentage of the starting concentration ([1]; 4 h): 5.1% | Inhibition of the LPS-mediated immune response (NFKB in the nucleus) (NFKB; 1.5 h 5 μM Del-Cl + 10 μg/ml LPS simultaneously, FIG. 1, FIG. 2a): inhibition of the immune response; also recorded: inhibited at least just as well as by means of addition of hydrocortisone | Inhibition of the LPS-mediated immune response (NFKB in the nucleus) (NFKB; 1.5 h 10 μM Del-Cl + 10 μg/ml LPS, repeat experiment FIG. 2b): significantly reduced | Inhibition of the cell immune response with varying concentration (NFKB in the nucleus) (NFKB; 1.5 h 2.5, 5 and 10 μM Del-Cl, without LPS, FIG. 3): increase in the delphinidin-mediated inhibition of the cell immune response (dose effect) | Inhibition of the LPS-mediated immune response (NFKB in the nucleus) (NFKB; 24 h prestimulation 5 μM Del-Cl, then 1.5 h 5 μM Del-Cl + 10 μg/ml LPS, FIG. 1): further intensified (additive effect) | Inhibition of the LPS-mediated immune response (NFKB in the nucleus) (NFKB; 24 h prestimulation with 5 μM Del-Cl, then 1.5 h 10 μg/ml LPS, FIG. 1): (weakly) inhibits | Inhibitory effect on the cell immune response compared to hydrocortisone (NFKB; appropriately high delphinidin concentration, 1.5 h, comparison hydrocortisone, FIG. 3): comparable to that of hydrocortisone | Effect on the TNFα-mediated decrease in claudin-5 mRNA expression ([2]; then delphinidin 0.1 μM, FIG. 5): counteracted this TNFα-mediated decrease | Effect on the TNFα-mediated decrease in claudin-5 mRNA expression ([2]; then delphinidin 1 μM, FIG. 5): counteracted this TNFα-mediated decrease | Barrier of the blood-brain barrier after inflammation [2, 5]: strongly increases | Effect on claudin-5 mRNA expression without prior TNFα exposure ([2]; delphinidin alone in the cell culture medium, FIG. 5): increase in claudin-5 mRNA expression | Attainable solubility, Delphinidin chloride [3]: 70 µg/mL | Effect on the TNFα-induced rise in Cc17 mRNA expression ([4]; then delphinidin 0.1 μM for a further 24 h, FIG. 4): distinct suppression or inhibition | Effect on the TNFα-induced rise in Cc17 mRNA expression ([4]; then delphinidin 1 μM for a further 24 h, FIG. 4): distinct suppression or inhibition | Antiphlogistic effect on the blood-brain barrier after inflammation relative to dexamethasone [4, 5]: at least equivalent | Effect on Cc17 expression without prior TNFα exposure ([4]; delphinidin alone in the cell culture medium, FIG. 4): suppression of Cc17 expression
